Literature values as cited in patent US7590494B1, “Drug design based on the structure of LTA4 hydrolase” (priority 1999, dated 2009).

Biological target: T1, LTA4 hydrolase (Homo sapiens, UniProt P09960)
T1 sequence (P09960 1-611): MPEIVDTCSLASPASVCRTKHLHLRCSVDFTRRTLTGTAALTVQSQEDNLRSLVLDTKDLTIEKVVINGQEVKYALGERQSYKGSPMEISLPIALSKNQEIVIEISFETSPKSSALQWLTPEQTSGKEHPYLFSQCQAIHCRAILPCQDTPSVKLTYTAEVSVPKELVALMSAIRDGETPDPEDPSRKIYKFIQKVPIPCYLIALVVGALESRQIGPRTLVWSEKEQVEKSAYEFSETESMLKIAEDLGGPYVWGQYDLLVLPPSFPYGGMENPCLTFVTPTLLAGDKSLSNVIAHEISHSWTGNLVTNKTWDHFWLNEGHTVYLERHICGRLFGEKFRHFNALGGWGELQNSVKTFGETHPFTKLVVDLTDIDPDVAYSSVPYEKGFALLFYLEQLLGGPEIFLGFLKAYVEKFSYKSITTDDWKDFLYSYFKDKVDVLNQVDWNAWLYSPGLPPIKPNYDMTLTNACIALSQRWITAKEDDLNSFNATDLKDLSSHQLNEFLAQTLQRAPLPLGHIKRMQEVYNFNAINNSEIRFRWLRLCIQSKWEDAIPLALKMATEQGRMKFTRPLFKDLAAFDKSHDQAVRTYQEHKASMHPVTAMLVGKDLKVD
Conditions: qualitative statement from Örning et al. 1991

SMILES	inhibition of LTA4 hydrolase
CC(C)C[C@H](NC(=O)[C@@H](O)[C@H](N)Cc1ccccc1)C(=O)O [bestatin]	inhibited
C[C@H](CS)C(=O)N1CCC[C@H]1C(=O)O [captopril]	inhibited
